Assay results published in patent publication US20110213000A1, “N-(2-THIAZOLYL)-AMIDE DERIVATIVES FOR THE TREATMENT OF OBESITY, DIABETES AND CARDIOVASCULAR DISEASES” (ZELTIA, S.A., priority 2007, published 2011).

Tested on: adiponectin promoter
Test: Luciferase reporter screening of promoter transcriptional activity in stable C2C12 cell lines
Format: cell-based, mouse
Details: for activation ratio: C2C12 stable line, luciferase, vs vehicle; for concentration at which the greatest transactivation was achieved: dose-response curve of the commercial activator on the target promoter
Description: The following protocol has been followed for the purpose of analyzing the potential therapeutic activity against obesity, type 2 diabetes mellitus and atherosclerosis (ODA metabolic diseases) of the compounds 1-5: • generating cell lines which have stably integrated human promoters of key genes in the development of ODA diseases; • amplifying the human promoter sequence of the target genes starting from commercial human genomic DNA; • cloning the promoter into a suitable vector which allows knowing the transcriptional activity of the promoter sequence, using the luciferase gene as a reporter gene; • generating stable cell lines for each of the promoters cloned into the reporter vectors; • carrying out the screening test with the compounds of the invention on the stable cell lines; • suitably validating the effect obtained with a certain compound which can modify the transcriptional activity of the promoter.
The selected cell line is C2C12, corresponding to myoblasts from mouse muscle tissue.
The luciferase activity is measured according to the following protocol: • a) 50000 and […] cells/well (and in duplicate) are seeded in a P24 plate. • b) After approximately 24 hours, the medium is removed from the cells and each well is washed with PBS 1× (because DMEM interferes in the measurement of the activity of the reporter gene) • c) 100 μl of luciferase developing reagent are added in each cell (Bright-Glo™ Luciferase Assay system—Promega). This reagent carries the reporter gene substrate and luminescence is generated as the product of the enzymatic reaction. The cells which have acquired the reporter gene, and therefore the target promoter, will be luminescent upon being in the presence of said substrate. To record the measurement of luciferase activity, the plate is shaken for 30 seconds right after adding the developing reagent and after 2 minutes, the volume is collected and transferred to a 96-well plate (P96), which can be read in an illuminometer. • d) The suitable luminescence program is selected, such that the reading lasts 5 seconds per well, and the arbitrary luminescence units are recorded for each obtained clone or, in other words, for each stable cell line.
Carrying out the screening test: The clones used in the screening are: C2C12 Adipo (adiponectin promoter), C2C12 UCP3 (UCP3 promoter), C2C12 AdR1 (adiponectin receptor 1 promoter) and C2C12 Nmu (neuromedin promoter).
Before any screening experiment, the suitable number of cells for carrying out such experiments must first be provided. To that end, 2 T75 are usually seeded (with approximately 1×10^6 cells in each bottle), such that after four days, the cells have reached confluence and are ready for the screening protocol detailed below to be carried out. • 1. Day 1: 30000 cells per well are seeded in white P96 plates; these plates allow amplifying the luminescence signal and improving the reading. The cells are grown in 100 μl of hygromycin-free medium. • 2. Day 2: 24 hours after the seeding, the cells are stimulated with compounds 1-5. […]
[drawing 16] • ? In the indicated positions, the baseline transcriptional activity of the promoters to be studied is recorded in the presence of the medium in which compounds 1-5 (vehicle) are dissolved. • ? In the indicated positions, the transcriptional activity of the promoters to be studied is recorded in the presence of a known commercial activator of the target promoter. […]

[1] = 1 μM, 48 hours after stimulation
[2] = 5 μM, 48 hours after stimulation
[3] = 10 μM, 48 hours after stimulation
[4] = 20 μM, 48 hours after stimulation
[5] = 0.5 μM, 48 hours after stimulation
[6] = 25 μM, 48 hours after stimulation

Structure (SMILES)	activation ratio [1]	activation ratio [2]	activation ratio [3]	activation ratio [4]	activation ratio (50 μM, dose-response curve)	activation ratio (100 μM, dose-response curve)	concentration at which the greatest transactivation was achieved [µM]	activation ratio (200 μM, dose-response curve)	activation ratio [5]	activation ratio [6]	activation ratio (0.1 μM, 48 hours after stimulation)	activation ratio (400 μM, dose-response curve)
O=c1c(-c2ccc(O)cc2)coc2cc(O)ccc12 [Daidzein]	1.68	3.03	3.76	4.04	4.05	3.71	20	–	–	–	–	–
O=c1c(-c2ccc(O)cc2)coc2cc(O)cc(O)c12 [Genistein]	1.47	2.25	3.59	3.05	1.97	1.75	20	1.59	–	–	–	–
O=C(Nc1nccs1)c1ccccn1 [Compound 3, pyridin-2-carboxylic acid thiazol-2-yl-amide]	1.71	3.23	3.82	–	3.20	1.61	–	0.75	1.40	3.73	–	–
O=C(Nc1nccs1)c1n[nH]c2ccccc12 [Compound 1, thiazol-2-ylamide compound of 1H-indazole-3-carboxylic acid]	4.59	–	5.52	–	2.29	0.71	–	–	3.66	3.58	1.28	0.12
CN(CCOc1ccc(CC2SC(=O)NC2=O)cc1)c1ccccn1 (centres unmarked) [Rosiglitazone]	–	–	–	–	–	–	20	–	–	–	–	–
